Measurements reported in patent US8614206B2 (Genentech, Inc., priority 2011, dated 2013).
Like-named read-outs stand apart in the source and are kept apart here.

How the values were obtained:
[1] = tested on: MM1.S (multiple myeloma) cells; test: In vitro cell proliferation, MM1.S multiple myeloma cells (CellTiter-Glo, ATP); type: cell-based; settings: read-out: Prolif MM1S ATP (EC50)
How it was run: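 BaF3 parental cells (medium with 2 ng/mL mIL-3) seeded at 2 k/well and MM1.S at 10 k/well, then exposed to test compound at 37° C, 5% CO2: BaF3 overnight, MM1.S for 72 hours. Viability read by CellTiter-Glo; IC50/EC50 values calculated.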

[2] = molecular target: PIM1 (Homo sapiens (Human), UniProt P11309); test: Pim kinase inhibition, PIM1 LC3K (Example 901); type: biochemical
Description: Determination of the Pim kinase activity of a Formula I compound is possible by a number of direct and indirect detection methods.

[3] = tested on: BaF3 PIM1 cells; settings: read-out: Prolif BaF3_PIM1 (IC50), incubated overnight
Protocol: (§1) BaF3 parental line was obtained from the DSMZ repository. BaF3 lines transfected with PIM 1 or PIM2 were generated. Mouse IL-3 was purchased from R&D Systems. G418 was purchased from Clontech. Media for BaF3 parental line contained RPMI, 10% FBS, 2 mM L-Glutamine, 2 ng/mL mIL-3. Media for BaF3 PIM1 & 2 lines contained RPMI, 10% FBS, 2 mM L-Glutamine, 250 μg/mL.
(§2) BaF3, a murine interleukin-3 dependent pro-B cell line, parental cells, BaF3 PIM1 cells, BaF3 PIM2 cells, and MM1.S (multiple myeloma) cells were seeded at 2 k/well, 5 k/well, 5 k/well, and 10 k/well respectively, in a 384-well plate, at 45 μL/well. Test compound was added at 5 μL/well. BaF3 cells (parental and transfected) were incubated overnight, while MM1.S cells were incubated for 72 hours at 37° C., 5% CO2. CELL TITER GLO® Reagent (Promega) was added at 50 μL/well, the plates were incubated for 30 minutes, and their luminescence read on an HT Analyst. IC50/EC50 values for the test compound were calculated.

[4] = tested on: BaF3 parental cells; test: In vitro cell proliferation, BaF3 parental line + IL3 (CellTiter-Glo); type: cell-based, murine; settings: read-out: Prolif BaF3 + IL3 (IC50)
Protocol: as §1, §2

[5] = tested on: BaF3 PIM1 cells; test: cells; settings: Mus musculus, BaF3, read-out: Prolif BaF3_PIM1 (IC50), BaF3 PIM1 cells, incubated overnight
Protocol: as §1, §2

[6] = Mus musculus, BaF3, BaF3 parental cells with IL-3, incubated overnight

PIM1, sequence (P11309 whole entry): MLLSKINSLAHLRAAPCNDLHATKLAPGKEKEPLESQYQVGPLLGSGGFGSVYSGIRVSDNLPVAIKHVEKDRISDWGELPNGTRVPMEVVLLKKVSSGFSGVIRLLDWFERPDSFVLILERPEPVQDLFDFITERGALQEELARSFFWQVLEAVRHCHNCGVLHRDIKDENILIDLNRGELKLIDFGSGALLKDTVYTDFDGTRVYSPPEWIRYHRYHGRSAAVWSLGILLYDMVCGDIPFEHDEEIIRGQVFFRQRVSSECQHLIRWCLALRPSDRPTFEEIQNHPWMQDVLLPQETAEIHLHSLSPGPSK

EC50 ([1]; 72 hours) [nM]	Ki [2] [nM]	IC50 [3] [nM]	EC50 ([1]; Homo sapiens, MM1.S, 72 h) [nM]	IC50 [5] [nM]	Structure (SMILES)	IC50 [4, 6] [nM]	IC50 ([4]; BaF3 parental cells with IL-3, incubated overnight) [nM]
404	0.133	284			CCn1ncc(NC(=O)c2nc(-c3c(F)cccc3F)sc2N)c1N1CCC(N)C(OC)CC1 (single isomer, unassigned) [Example 406, 5-amino-N-[5-(4-amino-5-methoxy-azepan-1-yl)-1-ethyl-pyrazol-4-yl]-2-(2,6-difluorophenyl)thiazole-4-carboxamide]	12000	
3500	0.204	795			CCn1ncc(NC(=O)c2nc(-c3c(F)cccc3F)sc2N)c1N1CCC(N)C(OC)CC1 (single isomer, unassigned) [Example 407, 5-amino-N-[5-(4-amino-5-methoxy-azepan-1-yl)-1-ethyl-pyrazol-4-yl]-2-(2,6-difluorophenyl)thiazole-4-carboxamide]		9800
	0.018		108	58.4	Cc1c(-c2nc(C(=O)Nc3cnn(C)c3N3CC[C@@H](N)CC(F)(F)C3)c(N)s2)cnn1C [Example 463, 5-amino-N-[5-[(5R)-5-amino-3,3-difluoro-azepan-1-yl]-1-methyl-pyrazol-4-yl]-2-(1,5-dimethylpyrazol-4-yl)thiazole-4-carboxamide]	> 25000	
	0.06		467	11.9	Cc1cc(-c2nc(C(=O)Nc3cnn(C)c3N3CC[C@@H](N)CC(F)(F)C3)c(N)s2)ccn1 [Example 464, 5-amino-N-[5-[(5R)-5-amino-3,3-difluoro-azepan-1-yl]-1-methyl-pyrazol-4-yl]-2-(2-methyl-4-pyridyl)thiazole-4-carboxamide]	15900	
	0.009		248	41.1	COC1(C)CC(N)CCN(c2c(NC(=O)c3nc(-c4c(F)cncc4F)sc3N)cnn2C)C1 (centres unmarked) [Example 473, 5-amino-N-[5-(5-amino-3-methoxy-3-methyl-azepan-1-yl)-1-methyl-pyrazol-4-yl]-2-(3,5-difluoro-4-pyridyl)thiazole-4-carboxamide]	25000	
	0.013		872	24.5	COC1(C)CC(N)CCN(c2c(NC(=O)c3nc(-c4ccncc4F)sc3N)cnn2C)C1 (centres unmarked) [Example 476, 5-amino-N-[5-(5-amino-3-methoxy-3-methyl-azepan-1-yl)-1-methyl-pyrazol-4-yl]-2-(3-fluoro-4-pyridyl)thiazole-4-carboxamide]	25000	
	0.055		67.9	44.9	[2H]C([2H])([2H])OC1CCN(c2c(NC(=O)c3nc(-c4ccccc4F)sc3N)cnn2C)CCC1N (centres unmarked) [Example 491, 5-amino-N-[5-[4-amino-5-(trideuteriomethoxy)azepan-1-yl]-1-methyl-pyrazol-4-yl]-2-(2-fluorophenyl)thiazole-4-carboxamide]	> 25000	
	0.095		5600	623	Cn1ncc(NC(=O)c2nc(-c3c(F)cccc3F)sc2N)c1N1CCC(N)C2(CCO2)CC1 (centres unmarked) [Example 510, 5-amino-N-[5-(5-amino-1-oxa-8-azaspiro[3.6]decan-8-yl)-1-methyl-pyrazol-4-yl]-2-(2,6-difluorophenyl)thiazole-4-carboxamide]	22000	
